Biological target: Nitric oxide synthase, inducible (Homo sapiens, UniProt P35228)
Assay: Binding affinity towards inducible nitric oxide synthase

Chain of Nitric oxide synthase, inducible (P35228 whole entry): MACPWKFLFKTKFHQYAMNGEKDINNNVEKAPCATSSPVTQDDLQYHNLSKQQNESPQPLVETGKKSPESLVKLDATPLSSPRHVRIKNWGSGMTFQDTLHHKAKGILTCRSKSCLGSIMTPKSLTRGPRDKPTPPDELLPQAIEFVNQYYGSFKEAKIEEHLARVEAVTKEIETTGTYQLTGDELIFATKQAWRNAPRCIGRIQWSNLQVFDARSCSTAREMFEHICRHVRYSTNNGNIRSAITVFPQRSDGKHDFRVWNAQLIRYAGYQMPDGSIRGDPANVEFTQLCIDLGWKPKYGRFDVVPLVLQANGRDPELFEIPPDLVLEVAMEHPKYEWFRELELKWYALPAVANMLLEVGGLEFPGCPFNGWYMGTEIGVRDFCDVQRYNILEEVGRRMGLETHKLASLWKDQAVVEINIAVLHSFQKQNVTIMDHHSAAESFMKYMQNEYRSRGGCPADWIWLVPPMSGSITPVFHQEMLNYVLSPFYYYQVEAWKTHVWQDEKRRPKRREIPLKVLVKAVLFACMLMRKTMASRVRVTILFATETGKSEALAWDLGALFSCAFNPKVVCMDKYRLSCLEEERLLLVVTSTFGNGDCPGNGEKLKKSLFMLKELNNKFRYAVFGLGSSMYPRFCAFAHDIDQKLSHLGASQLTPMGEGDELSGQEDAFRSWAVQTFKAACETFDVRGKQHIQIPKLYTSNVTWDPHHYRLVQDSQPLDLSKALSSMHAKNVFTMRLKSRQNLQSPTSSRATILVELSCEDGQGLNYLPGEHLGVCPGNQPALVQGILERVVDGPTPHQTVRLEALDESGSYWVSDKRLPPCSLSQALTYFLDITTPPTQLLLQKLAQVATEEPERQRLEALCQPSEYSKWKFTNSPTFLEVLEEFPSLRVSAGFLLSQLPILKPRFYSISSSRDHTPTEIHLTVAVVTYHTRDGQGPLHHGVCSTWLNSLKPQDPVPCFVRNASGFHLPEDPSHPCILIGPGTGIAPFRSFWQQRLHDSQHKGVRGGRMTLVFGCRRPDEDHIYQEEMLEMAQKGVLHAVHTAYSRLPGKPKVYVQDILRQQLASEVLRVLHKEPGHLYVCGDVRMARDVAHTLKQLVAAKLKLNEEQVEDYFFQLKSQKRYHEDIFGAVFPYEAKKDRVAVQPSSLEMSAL

SMILES | Ki
N=C(N)CCCCC(N)C(=O)O (configuration not stated) | > 3000 µM
N=C(N)NOCC[C@H](N)C(=O)O [CANAVANINE] | 220 µM

From ChEMBL document CHEMBL1142802, “L-arginine analogs as alternate substrates for nitric oxide synthase” (Bioorg Med Chem Lett, 2005)
